Data reported in patent US20170368148A1, “USES OF A PTHrP ANALOGUE IN REDUCING FRACTURE RISK” (RADIUS HEALTH, INC., priority 2015, published 2017).

Columns and labels:
[1] = system: postmenopausal women with osteoporosis; experiment: Phase 2 trial: safety, serum calcium, antibody formation; settings: 20 μg daily SC
Description: All subjects received supplemental calcium (500-1000 mg) and vitamin D (400-800 IU) per local practice. […] Blood calcium levels were assessed 4-hours and 24-hours after drug administration. Subjects were monitored for adverse events (AEs) and local tolerance at the injection site at each visit. Clinical and laboratory safety parameters, electrocardiograms, were also measured at each study visit.
Efficacy and safety were assessed using all randomized patients who received at least one dose of study drug. Baseline characteristics and safety parameters were summarized using descriptive statistics. […] All hypotheses were tested at the 2-sided 5% significance level.

[2] = system: postmenopausal women with osteoporosis; experiment: ACTIVE phase 3 trial: fracture rates and fracture risk reduction, 18 months; type: in vivo, human; settings: abaloparatide 80 μg or teriparatide 20 μg daily SC
Description: (§1) The ACTIVE phase 3 fracture prevention trial was conducted for abaloparatide in postmenopausal women with osteoporosis who were otherwise healthy. The enrolled subjects were treated with 80 micrograms (μg) of abaloparatide, a matching placebo, or the approved daily dose of 20 μg of teriparatide for 18 months. The ACTIVE trial evaluated fracture rates, fracture risks, BMD, and bone turnover biomarkers (e.g., CTX and P1NP) in all patient groups.
Fracture risk reduction and hazard ratio (HR) were derived from Kaplan-Meier (KM) curve.
The ACTIVE pivotal Phase 3 fracture prevention trial for the PTHrP analogue abaloparatide, Study BA058-05-003 (see ClinicalTrials.gov), was a randomized, double-blind, placebo-controlled trial in postmenopausal osteoporotic women randomized to receive daily doses of one of the following for 18 months: 80 micrograms (μg) of abaloparatide; a matching placebo; or the approved daily dose of 20 μg of teriparatide. Treatment with abaloparatide at a daily dose of 80 μg or placebo remained blinded to all parties throughout the study. Teriparatide used was a proprietary prefilled drug and device combination that could not be repackaged. Therefore, its identity could not be blinded to treating physicians and patients once use began. Study medication was self-administered daily by subcutaneous injection for a maximum of 18 months. All enrolled patients also received calcium and vitamin D supplementation from the time of enrollment until the end of the treatment period. It was recommended to patients that they also continue these supplements through the one-month follow-up period.
The trial completed enrollment in March 2013 with 2,463 patients at 28 medical centers in 10 countries in the United States, Europe, Latin America, and Asia. The baseline characteristics of the selected patients are detailed in Table 3 below.
The study enrolled otherwise healthy ambulatory women aged 49 to 86 (inclusive) who had been postmenopausal for at least five years, met the study entry criteria, and had provided written informed consent. […] All patients were to be in good general health as determined by medical history, physical examination (including vital signs), and clinical laboratory testing. This study population contained a patient population reflective of the type of severe osteoporosis patients that specialists would be expected to treat in their practices.
As set forth in the ACTIVE protocol, the primary efficacy endpoint was the number of patients treated with abaloparatide with incident vertebral fractures at the end of treatment as compared to those who received placebo. The pre-specified secondary efficacy parameters included, among other endpoints, reduction in the incidence/risk of non-vertebral fractures; changes in BMD of the spine, hip, and femoral neck from baseline to end of treatment as assessed by DXA and as compared to teriparatide; and the number of hypercalcemic events in abaloparatide treated patients when compared to teriparatide at end of treatment.

[3] = system: postmenopausal women with osteoporosis; experiment: ACTIVE trial: bone turnover markers (CTX, P1NP); type: in vivo, human; settings: at 18 months
Description: as §1
BMD and bone turnover biomarkers (CTX and P1NP) were also evaluated in all patient groups to compare the effects of abaloparatide versus teriparatide.

[4] = system: postmenopausal women with osteoporosis; experiment: Phase 2 24-week trial: serum biochemical markers of bone turnover; type: in vivo, human; settings: 24 weeks; 20 μg daily SC
Description: Biochemical Markers of bone turnover: Fasting morning blood samples (collected 24 hours after last injection if taking teriparatide) were obtained at each visit. Serum osteocalcin (OC) was measured via electrochemiluminescence assay (Roche Diagnostics, Basel, Switzerland), with […] coefficients of variation (CVs) of 1.8% and 4.8% respectively. Serum amino-terminal propeptide of type 1 procollagen (P1NP) was measured via radioimmunoassay (Orion Diagnostica, Espoo, Finland) with inter- and intra-assay CVs of 4.5% and 5.5% respectively. Serum β-c-terminal telopeptide of type one collagen (CTX) was measured via electrochemiluminescence assay (Roche Diagnostics, Basel, Switzerland) with inter- and intraassay CVs of 3.8% and 6.9% respectively.

[5] = system: postmenopausal osteoporotic women; experiment: Trabecular bone score (TBS) from spinal DXA, phase 2 trial; type: in vivo, human; settings: 20 μg daily SC
Source text: To assess the effects of the PTHrP analogue abaloparatide on trabecular microarchitecture as indirectly assessed by TBS, the TBS (TBS Calculator v2.2, Medimaps group, Plan-les-Ouates, Geneva, Switzerland) in a blinded fashion at 0, 12, and 24-weeks in 222 postmenopausal osteoporotic women (age 55-85) who were randomized to receive 24-weeks of daily subcutaneous injections of placebo, abaloparatide 20-μg, abaloparatide 40-μg. abaloparatide 80-μg, or teriparatide (TPTD) 20-μg was retrospectively calculated. Between groups differences in the mean percent TBS changes were assessed by unpaired t-test.

[6] = system: postmenopausal women with osteoporosis; experiment: Phase 2 24-week dose-finding trial (48-week extension): BMD by DXA; type: in vivo, human
Source text: Healthy postmenopausal women between the ages of 55 to 85 (based on a 5-year history of amenorrhea and an elevated serum level of FSH) were enrolled in the study if they met one of the following the following definitions of osteoporosis:
Dual X-ray absorptiometry: DXA scans were obtained at each local site and then sent to a central imaging reader (BioClinica Inc. Newton, PA) where they underwent a quality control review and then analyzed according to each manufacturers guidelines. Scans performed during the treatment period on the same instrument used for the baseline scan were acquired. Each study site performed Instrument Quality Control over time (instrument standardization and phantom calibration) that was reviewed by the central reader.
BMD was re-measured at the 48-week visit.

[7] = 24 weeks, abaloparatide 80 μg, teriparatide 20 μg, valid-completers
[8] = 48 weeks (extension), 20 μg daily SC

CC[C@H](C)[C@H](NC(=O)[C@H](CCC(=O)O)NC(=O)[C@H](CO)NC(=O)[C@@H](NC(=O)[C@@H](N)CO)C(C)C)C(=O)N[C@@H](CCC(N)=O)C(=O)N[C@@H](CC(C)C)C(=O)N[C@@H](CCSC)C(=O)N[C@@H](Cc1cnc[nH]1)C(=O)N[C@@H](CC(N)=O)C(=O)N[C@@H](CC(C)C)C(=O)NCC(=O)N[C@@H](CCCCN)C(=O)N[C@@H](Cc1cnc[nH]1)C(=O)N[C@@H](CC(C)C)C(=O)N[C@@H](CC(N)=O)C(=O)N[C@@H](CO)C(=O)N[C@@H](CCSC)C(=O)N[C@@H](CCC(=O)O)C(=O)N[C@@H](CCCN=C(N)N)C(=O)N[C@H](C(=O)N[C@@H](CCC(=O)O)C(=O)N[C@@H](Cc1c[nH]c2ccccc12)C(=O)N[C@@H](CC(C)C)C(=O)N[C@@H](CCCN=C(N)N)C(=O)N[C@@H](CCCCN)C(=O)N[C@@H](CCCCN)C(=O)N[C@@H](CC(C)C)C(=O)N[C@@H](CCC(N)=O)C(=O)N[C@@H](CC(=O)O)C(=O)N[C@H](C(=O)N[C@@H](Cc1cnc[nH]1)C(=O)N[C@@H](CC(N)=O)C(=O)N[C@@H](Cc1ccccc1)C(=O)O)C(C)C)C(C)C [teriparatide, hPTH(1-34)]
Highest serum calcium value obtained by any subject ([1]; 4-hours post-dose): 12.6 mg/dL
Patients with serum calcium levels ≧10.5 mg/dL ([1]; 4-hours post-dose): 40%
Patients with serum calcium levels ≧10.5 mg/dL ([1]; 24-hours after the last injection): 16%
Highest serum calcium value obtained by any patient ([1]; 24-hours post-dose): 11.2 mg/dL
Dizziness ([1]; 24 weeks): 4%
Incidence of headache ([1]; 24 weeks): 13%
Patients discontinued due to AEs ([1]; 24 weeks): 4%
Proportion of patients that experienced TEAEs ([1]; 24 weeks): 78%
TEAEs possibly or probably related to study treatment ([1]; 24 weeks): 29%
Treatment-related TEAEs ([1]; extension to 48 weeks): 21%
Fracture Rate, incident clinical fractures [2]: 4.3%
Fracture Rate, incident non-vertebral fractures [2]: 2.9%
Fracture Rate, major osteoporotic fractures [2]: 2.8%
Fracture Rate, wrist [2]: 2.1%
Fracture Risk Reduction v. PBO, incident clinical fractures [2]: 29%
Fracture Risk Reduction v. PBO, incident non-vertebral fractures [2]: 28%
Fracture Risk Reduction v. PBO, major osteoporotic fractures [2]: 33%
Fracture Risk Reduction v. PBO, wrist [2]: −13%
Fracture rate, new vertebral fractures (excluding worsening) [2]: 0.84%
Reduction of new vertebral fractures (excluding worsening) as compared to placebo [2]: 80%
Fracture Risk Reduction v. PBO, incident clinical fractures ([2]; listed as TPTD): 29%
Fracture Risk Reduction v. PBO, incident non-vertebral fractures ([2]; listed as TPTD): 28%
Fracture Risk Reduction v. PBO, major osteoporotic fractures ([2]; listed as TPTD): 33%
Fracture Risk Reduction v. PBO, incident non-vertebral fractures ([2]; listed as Teriparatide): 28%
CTX level compared to placebo [3]: elevated levels compared to placebo
CTX increase, median (interquartile range) [4]: 76 (13, 130) %
P1NP increase, median (interquartile range) [4]: 98 (21, 184) %
TBS mean percent change ([5]; 12 weeks): +1.5%
TBS mean percent change ([5]; 24 weeks): +2.6%
Femoral neck BMD increase ([6]; 24 weeks, 20 μg daily SC): 1.1±4.6%
Lumbar spine BMD increase (±SD) ([6]; 24 weeks, 20 μg daily SC): 5.5±4.1%
Total hip BMD increase ([6]; 24 weeks, 20 μg daily SC): 0.5±3.9%
Percentage of subjects with a >3% BMD gain at the lumbar spine [6, 7]: 70%
Percentage of subjects with a >3% total hip BMD gain [6, 7]: 16%
Femoral neck BMD increase [6, 8]: 2.2%
Lumbar spine BMD increase [6, 8]: 8.6%
Total hip BMD increase [6, 8]: 1.3%
